Experimental findings from patent publication US5919780A, “Tricyclic inhibitors of protein farnesyltransferase” (Warner Lambert Company, priority 1997, dated 1999) are described below.

Each structure is given as a SMILES string. Read-outs that look alike come from different tables or passages of the source.

Test [1] addresses T1, rat brain farnesyl protein transferase (Rattus norvegicus, UniProt Q02293+Q04631).
T1 construct: 40-fold purified rat brain farnesyl protein transferase; from tissue; host or cells: rat brain
The experiment in a line: Farnesyl Protein Transferase Inhibition (PFT/FPT inhibitory activity). Type of test: biochemical. As to the method:
The protein:farnesyltransferase (PFT) or farnesyl protein transferase (FPT) inhibitory activity of compounds of Formula I was assayed in HEPES buffer (pH 7.4) containing 5 mM potassium phosphate and 20 μM ZnCl2. The solution also contained 7 mM DTT, 1.2 mM MgCl2, 0.1 mM leupeptin, 0.1 mM pepstatin, and 0.2 mM phenylmethylsulfonyl fluoride. Assays were performed in 96 well plates (Wallec) and employed solutions composed of varying concentrations of a compound of Formula I in 100% DMSO. Upon addition of both substrates, radiolabeled farnesyl pyrophosphate ([1-^3 H], specific activity 15-30 Ci/mmol, final concentration 0.12 μM) and (biotinyl)-Ahe-Tyr-Lys-Cys-Val-Ile-Met peptide (final concentration 0.2 μM), the enzyme reaction was started by addition of 40-fold purified rat brain farnesyl protein transferase. After incubation at 37° for 30 minutes, the reaction was terminated by diluting the reaction 2.5-fold with a stop buffer containing 1.5M magnesium acetate, 0.2M H3 PO4, 0.5% BSA, and strepavidin beads (Amersham) at a concentration of 1.3 mg/mL. After allowing the plate to settle for 30 minutes at room temperature, radioactivity was quantitated on a microBeta counter (Model 1450, Wallec). Compounds of Formula I show IC50 values of 0.8 to 60 μM in this assay and are thus valuable inhibitors of protein:farnesyltransferase enzyme which may be used in the medical treatment of tissue proliferative diseases, including cancer and restenosis. The assay was also carried out without 5 mM potassium phosphate.

A further test has as its system Ras protein. The experiment in a line: Gel Shift Assay against ras protein. Type of test: cell-based. As to conditions: ras-transformed cells, 18-hour incubation; read-out: Gel Shift Minimum Effective Dose. The protocol:
Twenty-four hours after planting 2×10^6 ras-transformed cells per treatment condition, the farnesylation inhibitor is added at varying concentrations. Following an 18-hour incubation period, cells are lysed in phosphate-buffered saline containing 1% Triton X-100, 0.5% sodium deoxycholate, and 0.1% SDS, pH 7.4 in the presence of several protease inhibitors (PMSF, antipain, leupeptin, pepstatin A, and aprotinin all at 1 μg/mL). Ras protein is immunoprecipitated from the supernatants by the addition of 3 μg v-H-ras Ab-2 (Y13-259 antibody from oncogene Science). After overnight immunoprecipitation, 30 μL of a 50% protein G-Sepharose slurry (Pharmacia) is added followed by 45-minute incubation. Pellets are resuspended in 2× tris-glycine loading buffer (Novex) containing 5% B-mercaptoethanol and then denatured by 5 minutes boiling prior to electrophoresis on 14% Tris-glycine SDS gels. Using Western transfer techniques, proteins are transferred to nitrocellulose membranes followed by blocking in blocking buffer. Upon overnight incubation with primary antibody (pan-ras Ab-2 from Oncogene Science), an antimouse HRP conjugate secondary antibody (Amersham) is employed for detection of the ras protein. Blots are developed using ECL techniques (Amersham).

Where [2] appears, read: Hepes with 5 mM PO4^-3, read-out: Farnesyl Protein Transferase Inhibition Hepes/5 mM PO4^-3 IC50.
[3] abbreviates: Hepes, without 5 mM phosphate, read-out: Farnesyl Protein Transferase Inhibition Hepes IC50.

`Clc1ccc2c(c1)N=C(NCCn1ccnc1)c1ccccc1N2` [Example 4, (8-Chloro-5H-dibenzo[b,e][1,4]diazepin-11-yl)-(2-imidazol-1-yl-ethyl)-amine]: the IC50 in test [1] (setting [2]) was 2.5 µM; in test [1] (setting [3]) it was 3 µM. In addition, the minimal effective concentration with Ras protein is 5 µM.

In the case of `Clc1ccc2c(c1)N=C(NCCCn1ccnc1)c1ccccc1N2` [Example 5, (8-Chloro-5H-dibenzo[b,e][1,4]diazepin-11-yl)-(3-imidazol-1-yl-propyl)-amine], the IC50 in test [1] (setting [2]) was 4.5 µM; in test [1] (setting [3]) it was 6.8 µM. In addition, the minimal effective concentration in the test with Ras protein was 2.5 µM.

On to `COc1ccc2c(c1)N=C(NCc1cccnc1)c1ccccc1N2` [Example 9, (8-Methoxy-5H-dibenzo[b,e][1,4]diazepin-11-yl)-pyridin-3-ylmethyl-amine], for which the IC50 stood at 16 µM in test [1] (setting [2]) and 27 µM in test [1] (setting [3]). The minimal effective concentration in the test on Ras protein was 50 µM.

On to `Clc1ccc2c(c1)Nc1ccccc1C(NCc1cccnc1)=N2` [Example 6, (7-Chloro-5H-dibenzo[b,e][1,4]diazepin-11-yl)pyridin-3-ylmethyl-amine], for which the values for the IC50 in test [1] (setting [2]) and in test [1] (setting [3]) were 5.6 µM and 5.5 µM, respectively. In addition, the minimal effective concentration in the test with Ras protein was found to be 50 µM.

Regarding `Clc1ccc2c(c1)N=C(NCCc1cccnc1)c1ccccc1N2` [Example 3, (8-Chloro-5H-dibenzo[b,e][1,4]diazepin-11-yl)-(2-pyridin-3-yl-ethyl)-amine], the results for the IC50 in test [1] (setting [2]) and in test [1] (setting [3]) were 57 µM and 36 µM, respectively. Further, the minimal effective concentration with Ras protein was more than 50 µM.

In the case of `Clc1cc2c(cc1Cl)Nc1ccccc1C(NCc1cccnc1)=N2` [Example 11, (7,8-Dichloro-5H-dibenzo[b,e][1,4]diazepin-11-yl)-pyridin-3-ylmethyl-amine], the values for the IC50 in test [1] (setting [2]) and in test [1] (setting [3]) were 1.6 µM and 0.8 µM, respectively. Moreover, in the test on Ras protein, the minimal effective concentration turned out to be 50 µM.

Turning to `Clc1ccc2c(c1)N=C(NCc1cccnc1)c1ccccc1N2` [Example 1, (8-Chloro-5H-dibenzo[b,e][1,4]diazepin-11-yl)pyridin-3-ylmethyl-amine], the IC50 in test [1] (setting [2]) was determined as 5 µM; in test [1] (setting [3]) it was 3.7 µM. The minimal effective concentration in the test on Ras protein came out at 50 µM.

In the case of `O=S1(=O)c2ccc(Cl)cc2N=C(NCc2cccnc2)c2ccccc21` [Example 17, (8-Chloro-5,5-dioxo-5H-5λ^6-dibenzo[b,f][1,4]thiazepin-11-yl)-pyridin-3-ylmethyl-amine], the IC50 in test [1] (setting [2]) worked out at 6.1 µM; in test [1] (setting [3]), 5 µM.

Take `Cc1ccc2c(c1)N=C(NCc1cccnc1)c1ccccc1N2` [Example 8, (8-Methyl-5H-dibenzo[b,e][1,4]diazepin-11-yl)-pyridin-3-ylmethyl-amine]: the IC50 in test [1] (setting [2]) was determined as 31 µM; in test [1] (setting [3]), 24 µM.

On to `CN1c2ccc(Cl)cc2N=C(NCc2cccnc2)c2ccccc21` [Example 15, (8-Chloro-5-methyl-5H-dibenzo[b,e][1,4]diazepin-11-yl)-pyridin-3-ylmethyl-amine], for which the IC50 in test [1] (setting [2]) was 17 µM; in test [1] (setting [3]) it was 12.2 µM. The minimal effective concentration in the test with Ras protein is more than 25 µM.

`c1ccc(COc2ccc3c(c2)N=C(NCc2cccnc2)c2ccccc2N3)cc1` [Example 12, (8-Benzyloxy-5H-dibenzo[b,e][1,4]diazepin-11-yl)-pyridin-3-ylmethyl-amine]: the IC50 in test [1] (setting [2]) is 37 µM; in test [1] (setting [3]) it was more than 50 µM. In addition, in the test on Ras protein, the minimal effective concentration is more than 50 µM.

Regarding `c1cncc(CNC2=Nc3ccccc3Nc3ccccc32)c1` [Example 7, (5H-Dibenzo[b,e][1,4]diazepin-11-yl)-pyridin-3-ylmethyl-amine], the IC50 in test [1] (setting [2]) came to 12 µM; in test [1] (setting [3]), 23 µM. Besides, the minimal effective concentration with Ras protein came out at 50 µM.

Turning to `Clc1ccc2c(c1)N=C(NCc1cccnc1)c1ccccc1O2` [Example 18, (8-Chloro-dibenzo[b,f][1,4]oxazepin-11-yl)-pyridin-3-ylmethyl-amine], the IC50 in test [1] (setting [2]) was 16.5 µM; in test [1] (setting [3]) it was 8.7 µM.

With `Clc1ccc2c(c1)N=C(NCc1cccnc1)c1ccccc1S2` [Example 16, (8-Chloro-dibenzo[b,f][1,4]thiazepin-11-yl)pyridin-3-ylmethyl-amine], the results for the IC50 in test [1] (setting [2]) and in test [1] (setting [3]) were 22 µM and 9.8 µM, respectively.

In the case of `Clc1ccc2c(c1)N=C(NCCc1cnc[nH]1)c1ccccc1N2` [Example 2, (8-Chloro-5H-dibenzo[b,e][1,4]diazepin-11-yl)-[2-(3H-imidazol-4-yl)-ethyl]-amine], the IC50 in test [1] (setting [2]) came out at 3 µM; in test [1] (setting [3]), 2.4 µM. Besides, the minimal effective concentration in the test with Ras protein is 25 µM.

Consider `COc1cc2c(cc1OC)C(NCc1cccnc1)=Nc1cc(Cl)c(Cl)cc1N2` [Example 13, (7,8-Dichloro-2,3-dimethoxy-5H-dibenzo[b,e][1,4]diazepin-11-yl)-pyridin-3-ylmethyl-amine], for which the IC50 in test [1] (setting [2]) amounted to 50 µM; in test [1] (setting [3]), 30 µM.

As for `c1cncc(CNC2=Nc3ccccc3Nc3ncccc32)c1` [Example 14, (11H-Benzo[b]pyrido[2,3-e][1,4]diazepin-5-yl)-pyridin-3-ylmethyl-amine], the IC50 in test [1] (setting [2]) was determined as 17 µM; in test [1] (setting [3]), 14 µM. Besides, the minimal effective concentration in the test with Ras protein was determined as 50 µM.

With `Brc1ccc2c(c1)N=C(NCc1cccnc1)c1ccccc1N2` [Example 10, (8-Bromo-5H-dibenzo[b,e][1,4]diazepin-11-yl)-pyridin-3-ylmethyl-amine], the IC50 in test [1] (setting [2]) came to 36 µM; in test [1] (setting [3]) it was 6 µM.
